Data published in PubChem BioAssay AID2060907 (Molecular Pharmacology Branch, DTP, NCI, 2025).

Tested on: 388556-164-R-J1-PDC complex spheroid viability
Experiment: Anticancer human tumor 388556-164-R-J1-PDC patient-derived colon adenocarcinoma cell line growth inhibition [RAS]
Settings: for viability, T/C: stronger effect = lower value
In short: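 Agents were tested in combination matrices in half-log decrements from a top concentration at or near clinical Cmax (10 microM if undetermined). Targets were multi-cell spheroids of tumour lines plus HUVEC and MSC stromal cells.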

[1] = curve of first compound, second compound 0.0316 µM
[2] = curve of first compound, second compound 0.1 µM
[3] = curve of first compound, second compound 0.316 µM
[4] = curve of first compound, second compound 1 µM
[5] = second compound 0.0316 µM, first compound 0.0316 µM
[6] = second compound 0.0316 µM, first compound 0.1 µM
[7] = second compound 0.0316 µM, first compound 0.316 µM
[8] = second compound 0.0316 µM, first compound 1 µM
[9] = second compound 0.0316 µM, first compound 3.16 µM
[10] = second compound 0.0316 µM, first compound 10 µM
[11] = second compound 0.1 µM, first compound 0.0316 µM
[12] = second compound 0.1 µM, first compound 0.1 µM
[13] = second compound 0.1 µM, first compound 0.316 µM
[14] = second compound 0.1 µM, first compound 1 µM
[15] = second compound 0.1 µM, first compound 3.16 µM
[16] = second compound 0.1 µM, first compound 10 µM
[17] = second compound 0.316 µM, first compound 0.0316 µM
[18] = second compound 0.316 µM, first compound 0.1 µM
[19] = second compound 0.316 µM, first compound 0.316 µM
[20] = second compound 0.316 µM, first compound 1 µM
[21] = second compound 0.316 µM, first compound 3.16 µM
[22] = second compound 0.316 µM, first compound 10 µM
[23] = second compound 1 µM, first compound 0.0316 µM
[24] = second compound 1 µM, first compound 0.1 µM
[25] = second compound 1 µM, first compound 0.316 µM
[26] = second compound 1 µM, first compound 1 µM
[27] = second compound 1 µM, first compound 3.16 µM
[28] = second compound 1 µM, first compound 10 µM
[29] = curve of first compound, second compound 3.16 µM
[30] = curve of first compound, second compound 10 µM
[31] = second compound 3.16 µM, first compound 0.0316 µM
[32] = second compound 3.16 µM, first compound 0.1 µM
[33] = second compound 3.16 µM, first compound 0.316 µM
[34] = second compound 3.16 µM, first compound 1 µM
[35] = second compound 3.16 µM, first compound 3.16 µM
[36] = second compound 3.16 µM, first compound 10 µM
[37] = second compound 10 µM, first compound 0.0316 µM
[38] = second compound 10 µM, first compound 0.1 µM
[39] = second compound 10 µM, first compound 0.316 µM
[40] = second compound 10 µM, first compound 1 µM
[41] = second compound 10 µM, first compound 3.16 µM
[42] = second compound 10 µM, first compound 10 µM
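Note: spheroids exposed to compound for 7 days before readout.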
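Throughout, for viability, T/C: 100% = DMSO vehicle control luminescence.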

Structure (SMILES): CC(Nc1ccc2c(c1)OCCn1cc(N3C(=O)OCC3C(F)F)nc1-2)C(N)=O (stereo not given) + C=CC(=O)N1CCN(c2nc(OCC3CCCN3C)nc3c(F)c(-c4nc(N)cc(C)c4C(F)(F)F)c(Cl)cc23)C(C)C1
- IC50 (curve of first compound, second compound 0.00316 µM): > 10 µM
- IC50 (curve of first compound, second compound 0.01 µM): > 10 µM
- IC50 [1]: > 10 µM
- IC50 [2]: > 10 µM
- IC50 [3]: > 10 µM
- IC50 [4]: > 10 µM
- viability, T/C (second compound 0.00316 µM, first compound 0.0316 µM): 108%
- viability, T/C (second compound 0.00316 µM, first compound 0.1 µM): 96.9%
- viability, T/C (second compound 0.00316 µM, first compound 0.316 µM): 88.6%
- viability, T/C (second compound 0.00316 µM, first compound 1 µM): 84.2%
- viability, T/C (second compound 0.00316 µM, first compound 3.16 µM): 69.8%
- viability, T/C (second compound 0.00316 µM, first compound 10 µM): 71.7%
- viability, T/C (second compound 0.01 µM, first compound 0.0316 µM): 103%
- viability, T/C (second compound 0.01 µM, first compound 0.1 µM): 94.4%
- viability, T/C (second compound 0.01 µM, first compound 0.316 µM): 85%
- viability, T/C (second compound 0.01 µM, first compound 1 µM): 77.1%
- viability, T/C (second compound 0.01 µM, first compound 3.16 µM): 74%
- viability, T/C (second compound 0.01 µM, first compound 10 µM): 63.3%
- viability, T/C [5]: 109%
- viability, T/C [6]: 98.9%
- viability, T/C [7]: 92.1%
- viability, T/C [8]: 76%
- viability, T/C [9]: 81.5%
- viability, T/C [10]: 65.5%
- viability, T/C [11]: 110%
- viability, T/C [12]: 88%
- viability, T/C [13]: 83%
- viability, T/C [14]: 77.2%
- viability, T/C [15]: 74.8%
- viability, T/C [16]: 68.1%
- viability, T/C [17]: 105%
- viability, T/C [18]: 114%
- viability, T/C [19]: 85.4%
- viability, T/C [20]: 77.8%
- viability, T/C [21]: 69.9%
- viability, T/C [22]: 64.4%
- viability, T/C [23]: 99.4%
- viability, T/C [24]: 88.7%
- viability, T/C [25]: 84.1%
- viability, T/C [26]: 84.1%
- viability, T/C [27]: 75.3%
- viability, T/C [28]: 65.7%

Structure (SMILES): CC(C)NCC(C(=O)N1CCN(c2ncnc3c2C(C)CC3O)CC1)c1ccc(Cl)cc1 (stereo not given) + C#Cc1c(F)ccc2cc(O)cc(-c3ncc4c(N5CC6CCC(C5)N6)nc(OCC56CCCN5CC(F)C6)nc4c3F)c12
- IC50 [1]: > 10 µM
- IC50 [2]: > 10 µM
- IC50 [3]: > 10 µM
- IC50 [4]: > 10 µM
- IC50 [29]: > 10 µM
- IC50 [30]: 8.86 µM
- viability, T/C [5]: 95.9%
- viability, T/C [6]: 106%
- viability, T/C [7]: 109%
- viability, T/C [8]: 98.6%
- viability, T/C [9]: 99.2%
- viability, T/C [10]: 100%
- viability, T/C [11]: 98.5%
- viability, T/C [12]: 107%
- viability, T/C [13]: 99.7%
- viability, T/C [14]: 96%
- viability, T/C [15]: 113%
- viability, T/C [16]: 93.6%
- viability, T/C [17]: 99%
- viability, T/C [18]: 105%
- viability, T/C [19]: 88.5%
- viability, T/C [20]: 99.2%
- viability, T/C [21]: 107%
- viability, T/C [22]: 82.3%
- viability, T/C [23]: 95.5%
- viability, T/C [24]: 93.1%
- viability, T/C [25]: 69.4%
- viability, T/C [26]: 92.1%
- viability, T/C [27]: 93.5%
- viability, T/C [28]: 77.8%
- viability, T/C [31]: 80.6%
- viability, T/C [32]: 66.6%
- viability, T/C [33]: 75.9%
- viability, T/C [34]: 83.8%
- viability, T/C [35]: 88.4%
- viability, T/C [36]: 59.4%
- viability, T/C [37]: 69.2%
- viability, T/C [38]: 67.3%
- viability, T/C [39]: 73.2%
- viability, T/C [40]: 87.2%
- viability, T/C [41]: 42%
- viability, T/C [42]: 53.3%

Structure (SMILES): C=CC(=O)N1CCN(c2nc(OCC3CCCN3C)nc3c(F)c(-c4nc(N)cc(C)c4C(F)(F)F)c(Cl)cc23)C(C)C1 (stereo not given)
- viability, T/C (compound 0.00316 µM): 100% [middle of 11 runs]
- viability, T/C (compound 0.0316 µM): 99.2% [middle of 11 runs]
- viability, T/C (compound 0.1 µM): 105% [middle of 11 runs]
- viability, T/C (compound 0.316 µM): 102% [middle of 11 runs]
- viability, T/C (compound 1 µM): 98% [middle of 11 runs]
- IC50 (compound alone, run of 09/09/2024): > 1 µM
- IC50 (curve of compound): > 1 µM

Structure (SMILES): Nc1ccn(C2OC(CO)C(O)C2(F)F)c(=O)n1 (stereo not given)
- viability, T/C (compound 0.00316 µM): 97.9% [middle of 4 runs]
- viability, T/C (compound 0.01 µM): 93.1% [middle of 4 runs]
- viability, T/C (compound 0.0316 µM): 81.8% [middle of 4 runs]
- viability, T/C (compound 0.1 µM): 79% [middle of 4 runs]
- viability, T/C (compound 0.316 µM): 74.7% [middle of 4 runs]
- viability, T/C (compound 1 µM): 70.2% [middle of 4 runs]
- IC50 (curve of compound): > 1 µM

Structure (SMILES): Cc1nc(N2CCC3(CC2)COC(C)C3N)c(CO)nc1Sc1ccnc(N)c1Cl (stereo not given) + C#Cc1c(F)ccc2cc(O)cc(-c3ncc4c(N5CC6CCC(C5)N6)nc(OCC56CCCN5CC(F)C6)nc4c3F)c12
- IC50 [1]: 2.29 µM
- IC50 [2]: 2.35 µM
- IC50 [3]: 0.827 µM
- IC50 [4]: 0.921 µM
- IC50 [29]: 0.4 µM
- IC50 [30]: 0.0959 µM
- viability, T/C [5]: 92%
- viability, T/C [6]: 85.2%
- viability, T/C [7]: 79.8%
- viability, T/C [8]: 55.2%
- viability, T/C [9]: 51%
- viability, T/C [10]: 42.3%
- viability, T/C [11]: 98.4%
- viability, T/C [12]: 89.7%
- viability, T/C [13]: 71.8%
- viability, T/C [14]: 62.5%
- viability, T/C [15]: 45%
- viability, T/C [16]: 36.9%
- viability, T/C [17]: 89.2%
- viability, T/C [18]: 81.4%
- viability, T/C [19]: 47.3%
- viability, T/C [20]: 51.8%
- viability, T/C [21]: 45.2%
- viability, T/C [22]: 28.8%
- viability, T/C [23]: 80%
- viability, T/C [24]: 70.5%
- viability, T/C [25]: 58.9%
- viability, T/C [26]: 49.1%
- viability, T/C [27]: 39.4%
- viability, T/C [28]: 26.2%
- viability, T/C [31]: 66.1%
- viability, T/C [32]: 50.8%
- viability, T/C [33]: 54.3%
- viability, T/C [34]: 46.6%
- viability, T/C [35]: 33.6%
- viability, T/C [36]: 24%
- viability, T/C [37]: 61.1%
- viability, T/C [38]: 45.5%
- viability, T/C [39]: 44%
- viability, T/C [40]: 32.1%
- viability, T/C [41]: 22%
- viability, T/C [42]: 21.3%
